For orientation: IC50 means the concentration that inhibits the measured activity by half. Higher therefore signals weaker potency in that assay. The term Ki denotes a dissociation constant, usually derived from enzyme kinetics or from competition with a known ligand. The low end stands for higher affinity, the high end for lower affinity. The term Km denotes the concentration of substrate that gives half-maximal velocity.

Data set [1] concerns the target T1, Tyrosinase (Agaricus bisporus, UniProt O42713).
T1 sequence (O42713 whole entry): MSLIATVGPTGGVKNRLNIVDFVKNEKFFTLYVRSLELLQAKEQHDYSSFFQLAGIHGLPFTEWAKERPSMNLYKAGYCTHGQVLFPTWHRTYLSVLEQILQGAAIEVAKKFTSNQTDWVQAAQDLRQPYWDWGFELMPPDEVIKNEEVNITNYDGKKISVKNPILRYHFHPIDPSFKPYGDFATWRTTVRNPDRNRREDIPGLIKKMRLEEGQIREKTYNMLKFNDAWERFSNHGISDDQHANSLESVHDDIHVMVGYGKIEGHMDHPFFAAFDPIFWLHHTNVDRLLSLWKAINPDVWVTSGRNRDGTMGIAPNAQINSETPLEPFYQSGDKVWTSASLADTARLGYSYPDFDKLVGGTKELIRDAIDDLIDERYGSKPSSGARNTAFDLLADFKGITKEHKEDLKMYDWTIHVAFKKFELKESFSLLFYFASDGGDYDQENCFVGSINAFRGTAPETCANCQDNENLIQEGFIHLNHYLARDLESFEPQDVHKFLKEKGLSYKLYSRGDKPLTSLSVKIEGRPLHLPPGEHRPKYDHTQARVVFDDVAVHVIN
Nature of the data set: Inhibition of mushroom tyrosinase after 15 mins.

The target of data set [2] is T1, Tyrosinase. Nature of the data set: Competitive inhibition of mushroom tyrosinase after 15 mins by Lineweaver-Burke plot analysis.
Substrate in data set [3]: CC(C)c1ccc(O)c(=O)cc1
The settings on record: Agaricus bisporus; 0.06 uM.
Description: Inhibition of mushroom tyrosinase at 0.06 uM after 15 mins by Michaelis-Menten constant analysis

Substrate in data set [4]: CC(C)c1cccc(=O)c(O)c1
The settings on record: Agaricus bisporus; 0.20 uM.
Description: Inhibition of mushroom tyrosinase at 0.20 uM after 15 mins by Michaelis-Menten constant analysis

Substrate in data set [5]: CC(C)c1ccc(O)c(=O)cc1
The settings on record: Agaricus bisporus; 0.02 uM.
Description: Inhibition of mushroom tyrosinase at 0.02 uM after 15 mins by Michaelis-Menten constant analysis

Substrate in data set [6]: CC(C)c1ccccc(=O)c1O
The settings on record: Agaricus bisporus; 3 uM.
Description: Inhibition of mushroom tyrosinase at 3 uM after 15 mins by Michaelis-Menten constant analysis

Substrate in data set [7]: CC(C)c1cccc(=O)c(O)c1
As to conditions: Agaricus bisporus; 0.05 uM.
Description: Inhibition of mushroom tyrosinase at 0.05 uM after 15 mins by Michaelis-Menten constant analysis

Substrate in data set [8]: CC(C)c1ccccc(=O)c1O
Description: Inhibition of mushroom tyrosinase at 6 uM after 15 mins by Michaelis-Menten constant analysis
As to conditions: Agaricus bisporus; 6 uM.

For the molecule `CC(C)c1ccccc(=O)c1O` [ALPHA-THUJAPLICIN], at Tyrosinase [1], it took 9530 nM to reach half-maximal inhibition (IC50). On Tyrosinase [2], affinity was put at a Ki of 3300 nM.

At Tyrosinase [1], `CC(C)c1cccc(=O)c(O)c1` [HINOKITIOL] gave a 50% inhibitory concentration (IC50) of 90 nM. The same molecule gave a Ki on Tyrosinase [2] of 60 nM.

On to `CC(C)c1ccc(O)c(=O)cc1` [GAMMA-THUJAPLICIN], for which the IC50 against Tyrosinase [1] turned out to be 70 nM. The Ki on Tyrosinase [2] came out at 20 nM.

B1: Tyrosinase (Agaricus bisporus), O42713 (protein)
chain: MSLIATVGPTGGVKNRLNIVDFVKNEKFFTLYVRSLELLQAKEQHDYSSFFQLAGIHGLPFTEWAKERPSMNLYKAGYCTHGQVLFPTWHRTYLSVLEQILQGAAIEVAKKFTSNQTDWVQAAQDLRQPYWDWGFELMPPDEVIKNEEVNITNYDGKKISVKNPILRYHFHPIDPSFKPYGDFATWRTTVRNPDRNRREDIPGLIKKMRLEEGQIREKTYNMLKFNDAWERFSNHGISDDQHANSLESVHDDIHVMVGYGKIEGHMDHPFFAAFDPIFWLHHTNVDRLLSLWKAINPDVWVTSGRNRDGTMGIAPNAQINSETPLEPFYQSGDKVWTSASLADTARLGYSYPDFDKLVGGTKELIRDAIDDLIDERYGSKPSSGARNTAFDLLADFKGITKEHKEDLKMYDWTIHVAFKKFELKESFSLLFYFASDGGDYDQENCFVGSINAFRGTAPETCANCQDNENLIQEGFIHLNHYLARDLESFEPQDVHKFLKEKGLSYKLYSRGDKPLTSLSVKIEGRPLHLPPGEHRPKYDHTQARVVFDDVAVHVIN
For the molecule B1, the Michaelis constant (Km) in data set [3] was determined as 950 µM; in data set [4] it was 1160 µM; in data set [5], 530 µM; in data set [6], 380 µM; in data set [7], 530 µM; in data set [8], 380 µM.

Source of the values: ChEMBL document CHEMBL1275369, “Structural insights into the hot spot amino acid residues of mushroom tyrosinase for the bindings of thujaplicins” (Bioorg Med Chem, 2010).
